Laboratory results: patent US20220347085A1, “REPELLENT COMPOSITION AND USES” (Université Bourgogne, priority 2019, published 2022)

Columns and labels:
Assay type in all cases: in vivo
Drosophila melanogaster [1] = test: Courtship of male Drosophila melanogaster towards females, olfactory exposure
Protocol: 1.1. Drosophila melanogaster
Drosophilae (Drosophila melanogaster) aged from 3 to 9 days are used for the courtship tests as described Grosjean et al. Nat. Neurosci. 2008 [1] and Grosjean et al. Nature 2011 [2].
Naive males were isolated in tubes, individually, upon emerging from their puparium. The females were selected to be virgin and were stored in tubes of 10 individuals. These tubes were placed in incubators, for which a temperature of 25° C. was kept constant. A 12 hour/12 hour day/night cycle was applied. The courtship tests were carried out in the morning, between 1 and 3 hours after the start of the day cycle.
These tests were conducted in devices made up of 6 cylindrical, transparent, and closed alveolae (see FIG. 15) of a volume of […]. A disk of filter paper (Whatman, filter paper 42) of 6 mm in diameter is deposited on the base thereof. Said paper is soaked in 10 μl of a composition comprising propionic acid and/or butyric acid diluted in paraffin oil (solvent). The different compositions used comprised, respectively, 0.5% or 1% propionic acid, 0.5% or 1% butyric acid. For each concentration, the number of pairs of flies tested was, respectively, 23, 23, 19 and 19. At the time of the test, 1 pair per alveolus was introduced into the behavior device (i.e. 6 pairs). Said pair was made up of one male and one female, each originating from the tubes mentioned above. The drosophilae were physically isolated from the odor source (said paper) by a netting which prevents any direct contact, the female had been decapitated but remained alive. In addition, the device was illuminated by red light (red far from the wavelength of between 625 and 630 nm) so as to eliminate any behavior associated with the visual perception which, in D. melanogaster, is between 300 and 550 nm)). Thus, the behavior observed depends only on the olfactory perception by the male of the compound introduced into the device at the time of the assembly thereof.
The behavior was filmed for 10 minutes, using a Sony HDR-XR550 camera. Each film was recorded and kept for subsequent analysis.
A proportion of courtship, expressed as a percentage, was then calculated, and represents the time during which the male courts the female during the 10 minutes of recording the test. The courtship of the Drosophila melanogaster is decomposed into recognizable stereotypical events, and described precisely in scientific literature (Greenspan & Ferveur, Annu. Rev. Genet, 2000 [3]). A statistical test (Mann-Whitney test (nonparametric test, GraphPad, Prism8)) was carried out in order to evaluate the influence, on the behavior, of the composition in which the paper is soaked; this involving a release of volatile compounds and an odor perceived by the drosophilae. […]

Drosophila suzukii [2] = test: Evaluation of the copulation of Drosophila suzukii; settings: 10 min observation
Protocol: 2. Evaluation of the Copulation From the films recorded for studying the courtship behavior of Drosophila suzukii, a percentage of the number of pairs copulating during the 10 minutes of observation was calculated on the basis of the composition in which the filter paper was soaked. A statistical evaluation was carried out, and different tests were performed. In particular, a Kruskal-Wallis test followed by a post-hoc Dunn's Multiple Comparison Test were carried out (GraphPad, Prism6) in order to quantify the influence, on the number of copulating individuals, of the composition in which the paper is soaked and which involves a release of volatile compounds and an odor perceived.

Drosophila suzukii [3] = test: Test in a box (repellent effect), Drosophila suzukii; settings: 2% in solvent, 1250 cm^3 box
Protocol: 2. Tests “in a Box” (Repellent Effect)
The sensitivity of the drosophilae was evaluated over a period of between 0 minutes and 24 hours, according to the conditions (see results) in closed and transparent boxes of 1250 cm^3.
An odor source, i.e. a composition comprising butyric acid or propionic acid in paraffin oil, was deposited on a filter paper at the base of a 50 mm petri dish. The petri dish is introduced into a test box and covered with a gauze Securimed M8202 sterile gauze pad) in order to prevent the flies from getting stuck on the oily odorous compound.
The concentrations used were 2%, 6% or 20% propionic acid.
A second Petri dish containing 5 to 6 grams of synthetic food used for breeding drosophilae in laboratories was placed in the test box, i.e. 6.5% maize flour, 6.5% (v/v) yeast extract, 1% (v/v) agar-agar, and 3% (v/v) of a 0.1% (v/v) antifungal solution (Tegosept (Apex)) in ethanol at 95%. This latter provides the water and/or the food which the flies needed during the test, and eliminated the possibility of an event due to dehydration of the individuals tested.
Drosophila melanogaster or suzukii were then introduced by groups into the test box, and moved there freely over time. Their behavior in the presence of a composition as mentioned above was observed and photographed (Apple iPhone 6S).

Drosophila melanogaster [4] = test: Test of the reversible effect (waking from anesthesia), Drosophila melanogaster; settings: after 10 minutes at 2%, then placed in empty device
Protocol: Test of the Reversible Effect.
The devices used were those described for the study of the anesthesia such as described in example 2 above. The application conditions for the propanoic acid or the butyric acid were similar to those of the anesthesia test described in example 2 above. The flies were brought into the presence of 2% propanoic acid or 2% butyric acid for 10 minutes. At the end of 10 minutes of observation of the anesthesia (example 2 above), the flies were removed from the device and placed into another device which was identical but “empty”, i.e. without solvent or odor (odor=2% propanoic acid in the solvent or 2% butyric acid in the solvent, respectively). For each empty device, the total number of flies introduced and observed were 20 males and 30 females previously exposed to 2% propanoic acid and removed from this anesthetizing environment, and 6 males and 7 females previously exposed to 2% butyric acid and removed from this anesthetizing environment.
The flies were considered as woken from the anesthesia when they got back up on their legs and moved in the device.
The time required for waking the flies following their anesthesia was then measured.

[5] = 1% in paraffin oil, compared with solvent alone, red light, decapitated female

## CCCC(=O)O [butyric acid]
Drosophila melanogaster [1]; 0.5% in paraffin oil, compared with solvent alone
  proportion of courtship of males towards females: significantly reduced
Drosophila melanogaster [1]; [5]
  proportion of courtship of males towards females: significantly reduced
Drosophila suzukii [2]; 0.1% in solvent
  reduction of the proportion of copulation: 70.55%
Drosophila suzukii [2]; 0.5% in solvent
  proportion of copulation: 3.03%
  reduction of the proportion of copulation: 83.03%
Drosophila suzukii [2]; 1% in solvent
  proportion of copulation: zero
Drosophila suzukii [3]
  repellent behavior (location of flies relative to odor source): remained away from the filter soaked in butyric acid
Drosophila suzukii [3]; males and females
  anesthesia at a distance in the box: anesthetized
  time until death in the box: 20 h
Drosophila melanogaster [4]; females
  time required to wake up fully from the anesthesia: 4.5 min
Drosophila melanogaster [4]; males
  time required to wake up fully from the anesthesia: 6 min

## CCC(=O)O [propionic acid]
Drosophila melanogaster [1]; [5]
  proportion of courtship of males towards females: significantly changed
Drosophila melanogaster [1]; 1% in solvent, compared with 0.5% in solvent
  proportion of courtship of males towards females: significantly reduced
Drosophila suzukii [2]; 0.1% in solvent
  reduction of the proportion of copulation: 58%
Drosophila suzukii [2]; 0.5% in solvent
  proportion of copulation: zero
Drosophila suzukii [2]; 1% in solvent
  proportion of copulation: zero
Drosophila suzukii [3]
  repellent behavior (location of flies relative to odor source): remained preferably away from said odor
Drosophila suzukii [3]; males and females
  anesthesia at a distance in the box: anesthetized in the hour which followed
Drosophila melanogaster [4]; females
  time required to wake up fully from the anesthesia: 9 min
Drosophila melanogaster [4]; males
  time required to wake up fully from the anesthesia: 23 min
